These results are taken from PMC9610897, “Cationic Perylene Antivirals with Aqueous Solubility for Studies In Vivo” (Pharmaceuticals, 2022).

Each structure is given as a SMILES string. Where two headings read alike, the source gives them in different places.

One series concerns IAV. The experiment in a line: IAV virus yield reduction assay. It counts as cell-based, influenza A virus (H1N1, strain A/PR/8/34). The conditions noted are these: Influenza A virus; virus yield reduction in MDCK cells, MOI 1, 24 h, M ± SD; read-out: Antiviral Activity, EC50 ± SD, IAV. The source says:
(§1) The green monkey kidney (Vero) cell line originated from WHO Biologicals, Switzerland (10–87), and the Madin-Darby canine kidney (MDCK) cell line was obtained from the American Type Culture Collection (ATCC CCL-34).
(§2) Viruses and strains used in the present work were severe acute respiratory syndrome-related coronavirus 2 (SARS-CoV-2, strain PIK35, GISAID EPI_ISL_428852), Chikungunya virus (CHIKV, strain Nic, GenBank IDs MN271691-2) and influenza A virus (H1N1, strain A/PR/8/34, ATCC VR-95).
Compound solutions were prepared in DMSO (20 mg/mL). The compounds were weighed in 2 mg amounts and dissolved in 100 μL of DMSO. Then, a series of 3-fold dilutions was prepared, starting from 300 µg/mL, in a cultural medium. The MDCK cell monolayer was treated with compound dilutions and incubated for 1 h in a CO2 incubator at 37 °C. Untreated cells were used as negative control. Afterward, the virus was added (MOI 1), and cells were incubated for 24 h at 37 °C in a CO2 incubator. After incubation, the culture medium was collected, and viral yields were determined by titration. In brief, a series of 10-fold dilutions (10^−7–10^−1) of viral supernatants were prepared in a cultural medium and applied to daily MDCK cell monolayers. Infected cells were incubated for 72 h at 37 °C in a CO2 incubator. The presence of the virus in the culture supernatants was determined using the hemagglutination assay with a 1% suspension of chicken erythrocytes. Viral titer was calculated according to the Reed-and-Muench method and was expressed as 50% tissue infectious doses (TID50) per 100 μL of volume. Inhibition (%) was calculated by comparison with non-treated cells, and EC50 was calculated from inhibitory curves.

The test system of the next series is CHIKV. In words: CHIKV cytopathic effect (CPE) inhibition test. To be noted: Chikungunya virus, 120 h; CPE inhibition in Vero cells, 5 days, M ± SD; read-out: Antiviral Activity, EC50 ± SD, CHIKV. In kind it is cell-based, Chikungunya virus (CHIKV, strain Nic). (Cytopathic effects are the visible damage that an infection or toxin causes in cultured cells.)
Another series can be described thus: in vitro. In kind it is in vitro ADME. The conditions noted are these: bovine, 80% FBS in 0.05 M PBS pH 7.4, 37 °C, read-out: In vitro FBS half-life (t1/2). The procedure: In vitro stability of 10 was studied in Gibco FBS (Thermo-Fisher Scientific, USA) by following the reported procedure with minor modifications. A 10 mM solution of the compound in DMSO (20 μL) was added to 80% FBS in 0.05 M PBS (pH 7.4) at 37 °C to yield the final concentration of 200 μM. The assays were carried out in triplicate in a water bath at 37 °C. Samples (100 μL) were taken at 0, 15, 30, 45, 60, 90, 120, 180, 240, and 300 min and added to 400 μL acetonitrile in order to deproteinize the plasma. The samples were then shaken for 1 min and centrifuged at 37 °C at 15,000 rpm for 5 min. The supernatants were analyzed by HPLC (detection at 530 nm). AUC values were determined and averaged from three independent experiments. In vitro serum half-life (t1/2) was calculated using the equation t1/2 = 0.693/b, where b is the slope found by linear fitting of the negative natural logarithm of the fraction remaining (AUC0-300/AUC0) vs. incubation time.

For series [1], the system named is influenza A/California/7/09/MA virus. It counts as in vivo, BALB/c mice. The conditions noted are these: for Average Life Expectancy (M ± SEM): BALB/c mice.
Series [2] can be described thus: Stability in stomach acid-mimicking 0.16 M aqueous HCl (TLC). It counts as physicochemical. The procedure: Since in vivo evaluation of the leader compound in mouse model involves intragastric administration, stability in stomach acid-mimicking 0.16 M aqueous HCl was assessed. The compound was stable, with slight signs of decomposition as determined by thin-layer chromatography (TLC) for at least 4 h, which exceeds the average residence time of drugs in the stomach. Then, stability in fetal bovine serum (FBS) was evaluated.

A short description of series [3]: Cell viability assay in MDCK cells (MTT). It counts as cell-based, canine. To be noted: dog, read-out: Cytotoxicity, CC50 ± SD, MDCK. How it is done: as §1
Compound solutions were prepared in DMSO (20 mg/mL), and then 2-fold dilutions in cultural medium were prepared starting from 1000 μg/mL. One-day MDCK cell monolayers (over 95% confluency) in 96-well plates ([…]) were washed twice with serum-free alpha-MEM (Thermo-Fisher Scientific, USA) and treated with 100 μL of compound dilutions in 2 replicates. The plates were then incubated for 24 h at 37 °C in a CO2 incubator. Cell viability was assessed using the tetrazolium test (MTT, ApplyChem). Optical density was measured on a Wallac 1420 Victor2 microplate reader (Perkin Elmer, Ramsey, MN, USA) at 535 nm, then CC50 values were calculated.

Series [4] in a line: Cell viability assay in Vero cells (resazurin). To be noted: green monkey, 5 d, read-out: Cytotoxicity, CC50 ± SD, Vero. It counts as cell-based. The procedure: as §1
Two-fold dilutions of the compounds (starting from 100 μM) were prepared in DMEM (Chumakov FSC R&D IBP RAS, Russia) and added to confluent cell monolayers. After 5 days of incubation (37 °C, 5% CO2), the cultural supernatant was substituted with a resazurin solution (25 μg/mL), followed by 4 h incubation (37 °C, 5% CO2). Then, 20 µL of 10% SDS were added to stop the reaction. Fluorescence intensity was measured with Promega GloMax-Multi Detection System (Ex525/Em580–640). Cells treated with dilutions of the compounds and DMSO, but not resazurin, were used to subtract the background fluorescence. All experimental procedures were performed in two replicates. Fluorescence curves were analyzed with Microsoft Excel 2013. 50% Cytotoxic concentrations (CC50) were calculated.
(Resazurin is reduced to fluorescent resorufin, in cell work by metabolically active cells.)

Another series deals with SARS-CoV-2. In words: SARS-CoV-2 cytopathic effect (CPE) inhibition test. To be noted: Severe acute respiratory syndrome coronavirus 2, 120 h; CPE inhibition in Vero cells, 5 days, M ± SD; read-out: Antiviral Activity, EC50 ± SD, SARS-CoV-2. In kind it is cell-based, strain PIK35.
Excerpt: as §1, §2
The procedure was described previously. In brief, two-fold dilutions of the compounds were prepared in Dulbecco MEM (Chumakov FSC R&D IBP RAS, Russia) and mixed 1:1 with a virus suspension containing 50–200 TCID50 and incubated for 1 h at 37 °C in a CO2 incubator. The final concentration series started from 100 μM. Then, compound-virus mixtures were added to confluent Vero cell monolayers in 2 replicates. After incubation at 37 °C in a CO2-incubator for 5 days, CPE signs (cell death) were assessed via microscope, and 50% effective concentration (EC50) (compound concentration required to decrease CPE by 50%) was calculated using the Karber method.

Series [5] is described as follows: Solubility in water (photometry). In kind it is physicochemical. How it is done:
The samples were dissolved in DMSO, diluted in series, and photometrically analyzed. The average molar absorption coefficient was calculated from the obtained optical densities of calibration solutions at the absorption maxima. Solubility values were determined as previously described by adding weighed amounts of compounds to distilled water followed by sonication (30 min), centrifugation (12,000 rpm, 10 min), and photometry.

The EC50 is the concentration needed to bring the measured effect to its halfway point. What is called CC50 is the concentration that lowers cell viability or growth by half. What is called solubility is the concentration that dissolves in the medium under given conditions. High values mean much dissolved substance, low ones little dissolved substance. With `C[n+]1c(C=Cc2ccc3c4cccc5cccc(c6cccc2c63)c54)sc2ccccc21.[Cl-]` [Compound 10, 3-Methyl-2-(2-(perylen-3-yl)vinyl)benzo[d]thiazol-3-ium chloride], the EC50 in the series on IAV turned out to be 22.7 ± 10 µM; in the series on CHIKV, 0.99 ± 0.15 µM; in the series with SARS-CoV-2, 1.45 ± 0.95 µM. The half-life at 200 μM in “in vitro” stood at 2.78 h. The results for the “Average Life Expectancy (M ± SEM)” value in series [1] (0.5 mg/kg intragastric) and in series [1] (4.5 mg/kg intragastric) were 8.6 ± 1.0 days and 8.6 ± 1.2 days, respectively. For the same compound, the “Protective Index (PI)” value is on record as 11% in series [1] (0.5 mg/kg intragastric) and 22% in series [1] (4.5 mg/kg intragastric). For the same compound, the “Weight loss (maximum)” value in [1] (mouse, in vivo) is reported as “up to 21.3%”. Moreover, the “Stability in 0.16 M aqueous HCl, time stable with slight signs of decomposition” value in series [2] is “at least 4 h”. Besides, in series [3], the CC50 at 24 h worked out at 69 ± 27 µM. The CC50 at 5 days in [4] is greater than 100 µM. For the same compound, the “Solubility in water (in words)” value in [5] is “substantial solubility”. In series [5] (thermodynamic from solid, distilled water, sonication, centrifugation, photometry), this compound came in with a solubility at 30 min of 11 mM.
